In ChEMBL document CHEMBL3286191, “Exploring structural motifs necessary for substrate binding in the active site of Escherichia coli pantothenate kinase” (Bioorg Med Chem, 2014):
Calls of active or inactive are those of the source. The rule behind the calls is not given here.

Assays:
Escherichia coli [1] = test: Ratio of kcat to Km for purified Escherichia coli pantothenate kinase by spectrophotometry
Escherichia coli [2] = test: Activity of purified Escherichia coli pantothenate kinase by spectrophotometry
Escherichia coli [3] = test: Inhibition of purified Escherichia coli pantothenate kinase using pantothenate as substrate at 0.625 to 20 mM by spectrophotometry
Escherichia coli [4] = test: Activity of purified Escherichia coli pantothenate kinase up to 1 uM by spectrophotometry

| Compound | kcat/Km (Escherichia coli [1]) | Km (Escherichia coli [2]) | kcat (Escherichia coli [2]) | inhibition (Escherichia coli [3]) | Activity (Escherichia coli [4]) |
| --- | --- | --- | --- | --- | --- |
| CC(C)(CO)[C@@H](O)C(=O)NCCC(=O)NCCCN1CCOCC1 | 2900 M⁻¹ s⁻¹ | 350 µM | 1.03 s⁻¹ |  |  |
| CCCCCNC(=O)CCNC(=O)[C@H](O)[C@](C)(CC)CO | 5100 M⁻¹ s⁻¹ | 230 µM | 1.17 s⁻¹ |  |  |
| CCCCCNC(=O)CCNC(=O)[C@H](O)C(C)(C)CO | 26000 M⁻¹ s⁻¹ | 36 µM | 0.93 s⁻¹ |  |  |
| CC(C)(CO)[C@@H](O)C(=O)NCCCOc1cc(Cl)ccc1Oc1ccc(Cl)cc1Cl |  |  |  | inactive | inactive |
| CC(C)(CO)[C@@H](O)C(=O)NCCC(=O)NCCN1CCNCC1 | 300 M⁻¹ s⁻¹ | > 1000 µM | 0.75 s⁻¹ |  |  |
| CCCCCNC(=O)CCNC(=O)[C@H](O)[C@@](C)(CO)CCCO |  |  |  | inactive | inactive |
| CC(C)(CO)[C@@H](O)C(=O)NCCC(=O)N1CCc2ccccc21 | 400 M⁻¹ s⁻¹ | 400 µM | 0.18 s⁻¹ |  |  |
| CC(C)(CO)[C@@H](O)C(=O)NCCC(=O)NCc1cccnc1 | 38000 M⁻¹ s⁻¹ | 33 µM | 1.24 s⁻¹ |  |  |
| CC(C)(CO)[C@@H](O)C(=O)NCCC(=O)NCCCn1ccnc1 | 21000 M⁻¹ s⁻¹ | 22 µM | 0.46 s⁻¹ |  |  |
| CCCCCNC(=O)CNC(=O)CCNC(=O)[C@H](O)C(C)(C)CO | 10000 M⁻¹ s⁻¹ | 120 µM | 1.12 s⁻¹ |  |  |
| CC(C)(CO)[C@@H](O)C(=O)NCCNC(=N)N |  |  |  | inactive | inactive |
| C=CCC[C@](C)(CO)[C@@H](O)C(=O)NCCC(=O)NCCCCC |  |  |  | inactive | inactive |
| CCCCCn1cc(CNC(=O)[C@H](O)C(C)(C)CO)nn1 | 5100 M⁻¹ s⁻¹ | 190 µM | 0.96 s⁻¹ |  |  |
| CC(C)(CO)[C@@H](O)C(=O)NCCC(=O)NCc1ccccc1 | 17000 M⁻¹ s⁻¹ | 67 µM | 1.15 s⁻¹ |  |  |
| CC(C)(CO)[C@@H](O)C(=O)NCCC(=O)Nc1ccncn1 | 3200 M⁻¹ s⁻¹ | 450 µM | 1.44 s⁻¹ |  |  |
| CC(C)(CO)[C@@H](O)C(=O)NCCC(=O)O | 50000 M⁻¹ s⁻¹ | 21 µM | 1.07 s⁻¹ |  |  |
| CN(C)CCCNCCCNC(=O)CCNC(=O)[C@H](O)C(C)(C)CO |  |  |  | inactive | inactive |
| CC(C)(CO)[C@@H](O)C(=O)NCCC(=O)NCCc1ccccn1 | 11000 M⁻¹ s⁻¹ | 110 µM | 1.15 s⁻¹ |  |  |
| CCCc1cn(CCCNC(=O)[C@H](O)C(C)(C)CO)nn1 | 500 M⁻¹ s⁻¹ | 1000 µM | 0.49 s⁻¹ |  |  |

| Compound | kcat/Km (Escherichia coli [1]) | Km (Escherichia coli [2]) | kcat (Escherichia coli [2]) | inhibition (Escherichia coli [3]) | Activity (Escherichia coli [4]) |
| --- | --- | --- | --- | --- | --- |
| CC(C)(CO)[C@@H](O)C(=O)NCCC(=O)NCC1CCNCC1 | 500 M⁻¹ s⁻¹ | > 1000 µM | 1.19 s⁻¹ |  |  |
| CCCC(=O)NCCNC(=O)CCNC(=O)[C@H](O)C(C)(C)CO | 4500 M⁻¹ s⁻¹ | 240 µM | 1.09 s⁻¹ |  |  |
| CC(C)(CO)[C@@H](O)C(=O)NCCC(=O)Nc1cc(Cl)ccc1Oc1ccc(Cl)cc1Cl |  |  |  | inactive | inactive |
| CCCCCNC(=O)CCNC(=O)[C@H](O)C(CC)(CC)CO | 200 M⁻¹ s⁻¹ | 1200 µM | 0.28 s⁻¹ |  |  |
| CCCCCNC(=O)CNCCCNC(=O)[C@H](O)C(C)(C)CO | 100 M⁻¹ s⁻¹ | 1200 µM | 0.13 s⁻¹ |  |  |
| C=CC[C@](C)(CO)[C@@H](O)C(=O)NCCC(=O)NCCCCC | 1500 M⁻¹ s⁻¹ | 590 µM | 0.89 s⁻¹ |  |  |
| CN(C)CCCNC(=O)CCNC(=O)[C@H](O)C(C)(C)CO |  |  |  | inactive | inactive |
| CC(C)(CO)[C@@H](O)C(=O)NCCC(=O)NCCCc1ccccc1 | 35000 M⁻¹ s⁻¹ | 32 µM | 1.13 s⁻¹ |  |  |
| Cc1cccnc1NC(=O)CCNC(=O)[C@H](O)C(C)(C)CO | 20000 M⁻¹ s⁻¹ | 39 µM | 0.78 s⁻¹ |  |  |
| CC(C)(CO)[C@@H](O)C(=O)NCCC(=O)NCc1ccncc1 | 7000 M⁻¹ s⁻¹ | 130 µM | 0.94 s⁻¹ |  |  |
| CC(C)(CO)[C@@H](O)C(=O)NCCC(=O)N1Cc2ccccc2C1 | 1900 M⁻¹ s⁻¹ | 200 µM | 0.45 s⁻¹ |  |  |
| CC(C)(CO)[C@@H](O)C(=O)NCCC(=O)NCc1ccccn1 | 20000 M⁻¹ s⁻¹ | 50 µM | 1.02 s⁻¹ |  |  |
| C#CC[C@](C)(CO)[C@@H](O)C(=O)NCCC(=O)NCCCCC | 9000 M⁻¹ s⁻¹ | 110 µM | 1.04 s⁻¹ |  |  |
| CC(C)(CO)[C@@H](O)C(=O)NCCC(=O)NCCS | 17000 M⁻¹ s⁻¹ | 60 µM | 1.03 s⁻¹ |  |  |
| CC(C)(CO)[C@@H](O)C(=O)NCCCNC(=N)Nc1ccc(Cl)cc1 |  |  |  | inactive | inactive |
| CC(C)(CO)[C@@H](O)C(=O)NCCS(=O)(=O)O |  |  |  | inactive | inactive |
| CCCCCNC(CNC(=O)[C@H](O)C(C)(C)CO)C(=O)O (some centres not stated) | 300 M⁻¹ s⁻¹ | 700 µM | 0.23 s⁻¹ |  |  |
| CC(C)(CO)[C@@H](O)C(=O)NCCC(=O)Nc1ccccc1 | 24000 M⁻¹ s⁻¹ | 43 µM | 1.02 s⁻¹ |  |  |
